Data as given in ChEMBL document CHEMBL4265899, “Trisubstituted thiazoles as potent and selective inhibitors of Plasmodium falciparum protein kinase G (PfPKG)” (Bioorg Med Chem Lett, 2018).

How the values were obtained:
[1] = target: Mitogen-activated protein kinase 1 (Homo sapiens) (UniProt P28482); assay: Inhibition of human ERK2 at 100 nM
[2] = tested on: Plasmodium falciparum; assay: Antimalarial activity against Plasmodium falciparum after 48 hrs by microbeta scintillation counting-based [3H]-hypoxanthine incorporation assay; assay type: functional, organism-based
[3] = Metabolic stability in human liver microsomes assessed as compound remaining after 40 mins; assay type: ADME, microsome; conditions: read-out: Stability
[4] = target: Mitogen-activated protein kinase 9 (Homo sapiens) (UniProt P45984); assay: Inhibition of human JNK2 at 100 nM
Mitogen-activated protein kinase 9 (Homo sapiens), sequence (P45984 whole entry, looked up): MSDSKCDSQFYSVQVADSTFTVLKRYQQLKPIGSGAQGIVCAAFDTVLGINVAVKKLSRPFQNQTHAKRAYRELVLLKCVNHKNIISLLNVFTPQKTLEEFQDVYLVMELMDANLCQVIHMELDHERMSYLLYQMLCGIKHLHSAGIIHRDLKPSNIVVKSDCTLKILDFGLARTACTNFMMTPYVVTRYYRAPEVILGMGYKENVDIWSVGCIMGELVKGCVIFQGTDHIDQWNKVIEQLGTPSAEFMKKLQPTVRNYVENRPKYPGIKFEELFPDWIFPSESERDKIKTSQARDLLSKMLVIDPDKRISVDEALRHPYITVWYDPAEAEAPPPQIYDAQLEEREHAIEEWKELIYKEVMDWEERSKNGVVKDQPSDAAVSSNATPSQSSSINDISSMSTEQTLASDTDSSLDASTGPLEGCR

[5] = target: Mitogen-activated protein kinase 14 (Homo sapiens) (UniProt Q16539); assay: Inhibition of human p38a MAPK at 100 nM
[6] = target: Ribosomal protein S6 kinase alpha-3 (Homo sapiens) (UniProt P51812); assay: Inhibition of human RSK2 at 100 nM
[7] = target: RAC-beta serine/threonine-protein kinase (Homo sapiens) (UniProt P31751); assay: Inhibition of human PKBbeta at 100 nM
[8] = target: Serine/threonine-protein kinase Sgk1 (Homo sapiens) (UniProt O00141); assay: Inhibition of human SGK1 at 100 nM
[9] = target: Ribosomal protein S6 kinase beta-1 (Homo sapiens) (UniProt P23443); assay: Inhibition of human S6K1 at 100 nM
[10] = target: Rho-associated protein kinase 2 (Homo sapiens) (UniProt O75116); assay: Inhibition of human ROCK2 at 100 nM
[11] = target: Serine/threonine-protein kinase N2 (Homo sapiens) (UniProt Q16513); assay: Inhibition of human PRK2 at 100 nM
[12] = target: Ribosomal protein S6 kinase alpha-5 (Homo sapiens) (UniProt O75582); assay: Inhibition of human MSK1 at 100 nM
Ribosomal protein S6 kinase alpha-5 (Homo sapiens), sequence (O75582 whole entry, looked up): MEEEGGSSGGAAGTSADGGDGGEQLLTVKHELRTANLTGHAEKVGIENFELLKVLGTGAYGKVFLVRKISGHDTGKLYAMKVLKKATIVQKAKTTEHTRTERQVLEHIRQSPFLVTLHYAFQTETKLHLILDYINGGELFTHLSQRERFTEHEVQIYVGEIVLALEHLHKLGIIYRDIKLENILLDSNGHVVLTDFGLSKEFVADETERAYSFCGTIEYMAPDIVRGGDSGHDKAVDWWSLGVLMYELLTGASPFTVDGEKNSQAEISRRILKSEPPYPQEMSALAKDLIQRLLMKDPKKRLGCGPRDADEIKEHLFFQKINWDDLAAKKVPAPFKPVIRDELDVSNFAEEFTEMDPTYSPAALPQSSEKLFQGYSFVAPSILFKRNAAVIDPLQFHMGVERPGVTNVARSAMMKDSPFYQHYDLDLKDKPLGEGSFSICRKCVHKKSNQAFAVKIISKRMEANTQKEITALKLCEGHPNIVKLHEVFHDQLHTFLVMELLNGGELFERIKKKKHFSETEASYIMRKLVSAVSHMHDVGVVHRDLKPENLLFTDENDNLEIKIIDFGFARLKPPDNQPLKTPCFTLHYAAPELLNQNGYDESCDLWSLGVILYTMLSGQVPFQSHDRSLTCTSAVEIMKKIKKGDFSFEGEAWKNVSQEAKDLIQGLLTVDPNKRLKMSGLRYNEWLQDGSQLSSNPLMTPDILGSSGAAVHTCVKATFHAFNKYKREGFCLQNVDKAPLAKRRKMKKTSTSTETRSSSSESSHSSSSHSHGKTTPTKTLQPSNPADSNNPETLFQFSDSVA

[13] = target: MAP kinase-interacting serine/threonine-protein kinase 1 (Homo sapiens) (UniProt Q9BUB5); assay: Inhibition of human MNK1 at 100 nM
[14] = target: MAP kinase-activated protein kinase 5 (Homo sapiens) (UniProt Q8IW41); assay: Inhibition of human PRAK at 100 nM
[15] = target: Serine/threonine-protein kinase Chk1 (Homo sapiens) (UniProt O14757); assay: Inhibition of human CHK1 at 100 nM
[16] = target: Serine/threonine-protein kinase Chk2 (Homo sapiens) (UniProt O96017); assay: Inhibition of human CHK2 at 100 nM
[17] = target: Glycogen synthase kinase-3 beta (Homo sapiens) (UniProt P49841); assay: Inhibition of human GSK3beta at 100 nM
[18] = target: Serine/threonine-protein kinase PLK1 (Homo sapiens) (UniProt P53350); assay: Inhibition of human PLK1 at 100 nM
[19] = target: MAP/microtubule affinity-regulating kinase 3 (Homo sapiens) (UniProt P27448); assay: Inhibition of human MARK3 at 100 nM
[20] = target: Serine/threonine-protein kinase BRSK2 (Homo sapiens) (UniProt Q8IWQ3); assay: Inhibition of human BRSK2 at 100 nM
[21] = target: Casein kinase I isoform alpha (Homo sapiens) (UniProt P48729); assay: Inhibition of human CK1 at 100 nM
[22] = target: Serine/threonine-protein kinase pim-1 (Homo sapiens) (UniProt P11309); assay: Inhibition of human PIM1 at 100 nM
[23] = target: Eukaryotic elongation factor 2 kinase (Homo sapiens) (UniProt O00418); assay: Inhibition of human EF2K at 100 nM
Eukaryotic elongation factor 2 kinase (Homo sapiens), sequence (O00418 whole entry): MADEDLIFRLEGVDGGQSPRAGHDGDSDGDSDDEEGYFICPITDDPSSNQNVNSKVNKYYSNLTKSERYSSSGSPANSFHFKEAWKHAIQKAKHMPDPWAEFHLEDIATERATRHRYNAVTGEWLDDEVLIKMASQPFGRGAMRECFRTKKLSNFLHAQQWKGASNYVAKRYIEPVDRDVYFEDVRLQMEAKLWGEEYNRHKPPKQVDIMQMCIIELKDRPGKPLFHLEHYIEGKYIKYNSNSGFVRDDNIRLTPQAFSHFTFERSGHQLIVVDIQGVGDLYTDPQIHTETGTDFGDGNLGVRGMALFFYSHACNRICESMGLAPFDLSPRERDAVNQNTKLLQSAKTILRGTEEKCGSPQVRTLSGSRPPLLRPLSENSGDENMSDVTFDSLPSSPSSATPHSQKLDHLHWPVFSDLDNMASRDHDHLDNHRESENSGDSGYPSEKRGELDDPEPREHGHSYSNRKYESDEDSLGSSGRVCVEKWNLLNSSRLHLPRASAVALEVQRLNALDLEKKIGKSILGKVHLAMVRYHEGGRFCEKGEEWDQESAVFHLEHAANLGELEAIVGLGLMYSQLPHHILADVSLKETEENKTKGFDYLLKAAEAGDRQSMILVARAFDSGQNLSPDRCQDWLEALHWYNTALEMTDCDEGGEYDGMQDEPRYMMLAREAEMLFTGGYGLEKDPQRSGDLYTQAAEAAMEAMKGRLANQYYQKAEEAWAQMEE

[24] = target: Serine/threonine-protein kinase PAK 4 (Homo sapiens) (UniProt O96013); assay: Inhibition of human PAK4 at 100 nM
[25] = target: Proto-oncogene tyrosine-protein kinase Src (Homo sapiens) (UniProt P12931); assay: Inhibition of human Src at 100 nM
[26] = target: Ephrin type-A receptor 2 (Homo sapiens) (UniProt P29317); assay: Inhibition of human EPHA2 at 100 nM
Ephrin type-A receptor 2 (Homo sapiens), sequence (P29317 whole entry): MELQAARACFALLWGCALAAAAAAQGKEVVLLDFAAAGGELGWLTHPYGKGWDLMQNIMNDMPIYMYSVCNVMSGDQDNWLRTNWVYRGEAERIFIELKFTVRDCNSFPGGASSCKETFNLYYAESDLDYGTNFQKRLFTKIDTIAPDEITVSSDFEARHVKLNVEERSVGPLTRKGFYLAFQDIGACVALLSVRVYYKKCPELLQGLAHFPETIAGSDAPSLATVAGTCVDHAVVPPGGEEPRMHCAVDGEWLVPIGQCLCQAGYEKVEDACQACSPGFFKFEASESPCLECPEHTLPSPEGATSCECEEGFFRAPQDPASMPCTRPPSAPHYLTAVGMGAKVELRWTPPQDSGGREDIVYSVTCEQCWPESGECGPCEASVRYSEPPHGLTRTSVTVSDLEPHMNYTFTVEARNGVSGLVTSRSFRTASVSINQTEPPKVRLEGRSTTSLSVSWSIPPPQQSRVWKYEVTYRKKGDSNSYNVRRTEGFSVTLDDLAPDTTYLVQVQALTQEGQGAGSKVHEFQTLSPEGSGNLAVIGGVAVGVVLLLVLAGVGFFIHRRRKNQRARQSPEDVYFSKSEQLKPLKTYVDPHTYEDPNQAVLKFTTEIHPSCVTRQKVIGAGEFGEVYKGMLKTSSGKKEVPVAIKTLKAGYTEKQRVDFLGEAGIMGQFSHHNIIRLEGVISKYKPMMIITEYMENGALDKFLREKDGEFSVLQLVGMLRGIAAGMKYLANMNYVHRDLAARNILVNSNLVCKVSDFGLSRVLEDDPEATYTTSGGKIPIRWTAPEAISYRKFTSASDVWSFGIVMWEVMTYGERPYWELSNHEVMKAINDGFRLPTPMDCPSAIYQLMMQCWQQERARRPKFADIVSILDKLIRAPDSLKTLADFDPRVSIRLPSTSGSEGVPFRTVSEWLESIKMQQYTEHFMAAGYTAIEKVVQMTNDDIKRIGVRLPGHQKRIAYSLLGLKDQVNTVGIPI

[27] = target: Serine/threonine-protein kinase 26 (Homo sapiens) (UniProt Q9P289); assay: Inhibition of human MST4 at 100 nM
[28] = target: Tyrosine-protein kinase SYK (Homo sapiens) (UniProt P43405); assay: Inhibition of human SYK at 100 nM
[29] = target: Tyrosine-protein kinase BTK (Homo sapiens) (UniProt Q06187); assay: Inhibition of human BTK at 100 nM
Tyrosine-protein kinase BTK (Homo sapiens), sequence (Q06187 whole entry): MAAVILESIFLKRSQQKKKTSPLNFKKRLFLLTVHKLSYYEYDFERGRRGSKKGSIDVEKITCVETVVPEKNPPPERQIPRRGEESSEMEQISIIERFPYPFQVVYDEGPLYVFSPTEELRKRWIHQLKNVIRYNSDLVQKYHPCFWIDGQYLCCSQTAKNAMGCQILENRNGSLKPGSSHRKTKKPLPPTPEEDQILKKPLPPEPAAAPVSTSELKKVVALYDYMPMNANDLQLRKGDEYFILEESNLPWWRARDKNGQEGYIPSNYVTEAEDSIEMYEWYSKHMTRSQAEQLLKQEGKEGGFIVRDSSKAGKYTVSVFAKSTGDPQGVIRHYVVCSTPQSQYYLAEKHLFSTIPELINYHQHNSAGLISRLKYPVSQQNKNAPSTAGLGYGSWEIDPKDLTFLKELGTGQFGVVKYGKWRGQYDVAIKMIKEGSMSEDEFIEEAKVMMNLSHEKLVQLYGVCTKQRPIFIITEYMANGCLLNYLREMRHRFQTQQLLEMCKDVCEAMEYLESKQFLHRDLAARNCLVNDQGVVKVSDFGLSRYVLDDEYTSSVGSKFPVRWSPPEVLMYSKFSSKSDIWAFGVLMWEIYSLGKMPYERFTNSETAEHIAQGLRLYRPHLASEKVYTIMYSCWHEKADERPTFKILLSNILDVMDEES

[30] = target: Ephrin type-B receptor 3 (Homo sapiens) (UniProt P54753); assay: Inhibition of human EPHB3 at 100 nM
[31] = target: Mitogen-activated protein kinase kinase kinase 11 (Homo sapiens) (UniProt Q16584); assay: Inhibition of human MLK3 at 100 nM
Mitogen-activated protein kinase kinase kinase 11 (Homo sapiens), sequence (Q16584 whole entry, looked up): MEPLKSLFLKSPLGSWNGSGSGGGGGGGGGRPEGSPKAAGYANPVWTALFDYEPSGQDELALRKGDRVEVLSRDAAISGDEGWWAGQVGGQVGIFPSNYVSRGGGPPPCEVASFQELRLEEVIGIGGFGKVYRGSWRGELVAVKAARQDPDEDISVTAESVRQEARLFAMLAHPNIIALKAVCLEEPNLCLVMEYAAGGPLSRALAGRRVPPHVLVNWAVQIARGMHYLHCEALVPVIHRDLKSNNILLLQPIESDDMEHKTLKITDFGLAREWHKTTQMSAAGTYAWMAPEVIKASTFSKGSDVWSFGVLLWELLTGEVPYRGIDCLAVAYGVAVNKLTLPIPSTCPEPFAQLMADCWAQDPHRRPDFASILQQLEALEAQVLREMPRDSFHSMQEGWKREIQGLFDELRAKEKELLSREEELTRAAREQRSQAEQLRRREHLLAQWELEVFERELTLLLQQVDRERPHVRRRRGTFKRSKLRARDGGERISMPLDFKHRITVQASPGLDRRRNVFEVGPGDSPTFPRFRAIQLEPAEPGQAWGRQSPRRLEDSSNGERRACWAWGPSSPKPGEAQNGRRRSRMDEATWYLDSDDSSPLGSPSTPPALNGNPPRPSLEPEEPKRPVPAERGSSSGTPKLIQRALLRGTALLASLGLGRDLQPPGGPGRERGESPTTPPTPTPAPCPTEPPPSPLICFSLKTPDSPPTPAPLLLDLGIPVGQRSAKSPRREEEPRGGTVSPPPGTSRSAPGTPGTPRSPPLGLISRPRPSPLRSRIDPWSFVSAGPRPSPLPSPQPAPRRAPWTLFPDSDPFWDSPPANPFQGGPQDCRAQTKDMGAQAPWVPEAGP

[32] = target: Insulin receptor (Homo sapiens) (UniProt P06213); assay: Inhibition of human IR at 100 nM
[33] = target: Mitogen-activated protein kinase kinase kinase 7 (Homo sapiens) (UniProt O43318); assay: Inhibition of human TAK1 at 100 nM
[34] = target: Mitogen-activated protein kinase kinase kinase 1 (Homo sapiens) (UniProt Q13233); assay: Inhibition of human MEKK1 at 100 nM
[35] = target: T1, Inhibitor of nuclear factor kappa-B kinase subunit beta (Homo sapiens) (UniProt O14920); conditions: at 100 nM
T1 sequence (whole entry): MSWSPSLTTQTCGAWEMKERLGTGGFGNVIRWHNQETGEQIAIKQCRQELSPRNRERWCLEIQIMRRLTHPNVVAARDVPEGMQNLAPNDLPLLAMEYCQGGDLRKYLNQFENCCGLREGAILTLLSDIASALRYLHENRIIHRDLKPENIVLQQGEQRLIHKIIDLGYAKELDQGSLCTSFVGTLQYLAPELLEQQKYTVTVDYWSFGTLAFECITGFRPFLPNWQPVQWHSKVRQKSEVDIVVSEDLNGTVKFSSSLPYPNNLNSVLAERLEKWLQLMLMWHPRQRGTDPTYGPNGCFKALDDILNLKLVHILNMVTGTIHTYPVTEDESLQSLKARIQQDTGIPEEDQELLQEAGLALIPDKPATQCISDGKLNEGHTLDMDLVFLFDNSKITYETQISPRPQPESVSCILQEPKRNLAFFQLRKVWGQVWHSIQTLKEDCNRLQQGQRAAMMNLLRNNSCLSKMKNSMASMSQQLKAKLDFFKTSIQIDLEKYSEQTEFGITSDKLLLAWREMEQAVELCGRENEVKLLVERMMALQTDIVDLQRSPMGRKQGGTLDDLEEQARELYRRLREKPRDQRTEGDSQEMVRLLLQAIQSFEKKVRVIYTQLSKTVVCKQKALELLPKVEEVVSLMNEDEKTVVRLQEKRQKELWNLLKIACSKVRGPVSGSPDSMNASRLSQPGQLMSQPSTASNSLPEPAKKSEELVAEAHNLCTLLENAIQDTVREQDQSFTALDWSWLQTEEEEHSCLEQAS
Description: Inhibition of human IKKb at 100 nM

Mitogen-activated protein kinase 1 (Homo sapiens), sequence (P28482 whole entry): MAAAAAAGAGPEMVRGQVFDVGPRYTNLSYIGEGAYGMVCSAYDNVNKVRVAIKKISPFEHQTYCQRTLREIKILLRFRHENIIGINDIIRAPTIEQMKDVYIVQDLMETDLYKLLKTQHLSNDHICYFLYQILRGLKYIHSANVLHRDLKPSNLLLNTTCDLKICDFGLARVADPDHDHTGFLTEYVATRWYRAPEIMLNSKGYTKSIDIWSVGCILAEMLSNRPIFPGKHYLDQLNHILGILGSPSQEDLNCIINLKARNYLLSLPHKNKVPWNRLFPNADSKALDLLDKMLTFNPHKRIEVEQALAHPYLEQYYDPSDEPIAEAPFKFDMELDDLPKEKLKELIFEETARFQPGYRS

Compound | inhibition [1] [%] | EC50 [2] [nM] | remaining at 40 min [3] [%] | inhibition [4] [%] | inhibition [5] [%] | inhibition [6] [%] | inhibition [7] [%] | inhibition [8] [%] | inhibition [9] [%] | inhibition [10] [%] | inhibition [11] [%] | inhibition [12] [%] | inhibition [13] [%] | inhibition [14] [%] | inhibition [15] [%] | inhibition [16] [%] | inhibition [17] [%] | inhibition [18] [%] | inhibition [19] [%] | inhibition [20] [%] | further results
CN1CCC(c2nc(-c3ccc(F)c(NS(C)(=O)=O)c3)c(-c3ccnc(NCC4CC4)n3)s2)CC1 | < 70 | 113 | 95 | < 70 | < 70 | < 70 | < 70 | < 70 | < 70 | < 70 | < 70 | < 70 | < 70 | < 70 | < 70 | < 70 | < 70 | < 70 | < 70 | < 70 | inhibition [21]: < 70%; inhibition [22]: < 70%; inhibition [23]: < 70%; inhibition [24]: < 70%; inhibition [25]: < 70%; inhibition [26]: < 70%; inhibition [27]: < 70%; inhibition [28]: < 70%; inhibition [29]: < 70%; inhibition [30]: < 70%; inhibition [31]: < 70%; inhibition [32]: < 70%; inhibition [33]: < 70%; inhibition [34]: < 70%; inhibition [35]: < 70%
CN1CCC(c2nc(-c3cccc(S(C)(=O)=O)c3)c(-c3ccnc(Nc4ccc(N5CCNCC5)cc4)n3)s2)CC1 | < 70 | 105 | 84 | < 70 | < 70 | < 70 | < 70 | < 70 | < 70 | < 70 | < 70 | < 70 | < 70 | < 70 | < 70 | < 70 | < 70 | < 70 | < 70 | < 70 | inhibition [21]: < 70%; inhibition [22]: < 70%; inhibition [23]: < 70%; inhibition [24]: < 70%; inhibition [25]: < 70%; inhibition [26]: < 70%; inhibition [27]: < 70%; inhibition [28]: < 70%; inhibition [29]: < 70%; inhibition [30]: < 70%; inhibition [31]: < 70%; inhibition [32]: < 70%; inhibition [33]: < 70%; inhibition [34]: < 70%; inhibition [35]: < 70%
